Patent publication US20250368628A1, “METHODS AND COMPOUNDS FOR MODULATING INHERITED GENETIC DISEASES” (Design Therapeutics, Inc., priority 2022, published 2025)
pEC50: −log10 of the molar value.

Assays:
[1] = tested on: F35T cells; assay: Foci reduction in FECD (CAG10-Cy3 FISH, foci per nucleus); type: cell-based; details: F35T cells, 48 h treatment, foci per nucleus; read-out: FECD EC50, 48 h
Outline: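 F35T cells, 5000 per well, were treated for 48 h at 37 °C, 5% CO2 in an 8-point dose response. Cells were then fixed in 4% PFA, permeabilized in 70% ethanol and hybridized overnight at 37 °C with a CAG10-Cy3 probe in 30% formamide/2×SSC. After DAPI staining, imaging gave foci per nucleus.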

[2] = tested on: Myotonic Dystrophy 1 affected patient fibroblasts (Coriel GM04602; 1600 CTG repeats); assay: DM1 foci reduction assay (EC50 assay; CAG10-Cy3 FISH, foci per nucleus); type: cell-based; details: Homo sapiens, Fibroblast; DM1 patient fibroblasts, 48 h treatment, foci per nucleus; read-out: DM1 EC50, 48 h
Outline: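 GM04602 DM1 patient fibroblasts (1600 CTG repeats) seeded 24 h, then treated 48 h at 37 °C with an 8-point 1:3 dose series from 3 μM. Cells PFA-fixed, ethanol-permeabilized and hybridized overnight with 5 nM CAG10-Cy3 probe, DAPI counterstained. Imaged at 20×, 4 fields per well, as average foci per nucleus.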

With `CC(=O)NCCOCCn1cc(NC(=O)c2nc(NC(=O)CCNC(=O)c3cc(NC(=O)c4nccn4C)cn3C)cn2C)cc1C(=O)NCCCC(=O)Nc1cn(C)c(C(=O)NCCC(=O)Nc2cc(C(=O)Nc3cn(C)c(C(=O)NCCC(=O)N4CCC(C#CC#CC5CCNCC5)CC4)n3)n(C)c2)n1` [Compound B-300] as the compound, how does the pEC50 [1] read?
The pEC50 was > 7.00.

And the pEC50 [2]?
Its pEC50 is > 7.00.

How did the pEC50 [1] turn out when `CCCNC(=O)CCNC(=O)c1nc(NC(=O)c2cc(NC(=O)CCNC(=O)c3nc(NC(=O)CCCNC(=O)c4cc(NC(=O)c5nc(NC(=O)CCNC(=O)c6cc(NC(=O)c7nccn7C)cn6C)cn5C)cn4CCCOCCN)cn3C)cn2C)cn1C` [Compound B-301] was run?
The pEC50 was > 7.00.

And the pEC50 [2]?
The pEC50 was 6.30 to 7.00.

With `CC(=O)N1CCC(C#CC#CC2CCN(C(=O)CCNC(=O)c3nc(NC(=O)c4cc(NC(=O)CCNC(=O)c5nc(NC(=O)CCCNC(=O)c6cc(NC(=O)c7nc(NC(=O)CCNC(=O)c8cc(NC(=O)c9nccn9C)cn8C)cn7C)cn6CCCOCCN)cn5C)cn4C)cn3C)CC2)CC1` [Compound B-302] as the compound, how does the pEC50 [1] read?
The pEC50 was > 7.00.

And the pEC50 [2]?
The pEC50 was > 7.00.

How did the pEC50 [1] turn out when `Cn1cc(NC(=O)c2nccn2C)cc1C(=O)NCCC(=O)Nc1cn(C)c(C(=O)Nc2cc(C(=O)NCCCC(=O)Nc3cn(C)c(C(=O)NCCC(=O)Nc4cc(C(=O)Nc5cn(C)c(C(=O)NCCC(=O)N6CCC(C#CC#CC7CCNCC7)CC6)n5)n(C)c4)n3)n(CCCOCCN)c2)n1` [Compound B-303] was run?
The pEC50 was 6.30 to 7.00.

What about the pEC50 [2] of the same compound?
Its pEC50 is 6.00 to 6.30.

`CCCNC(=O)CCNC(=O)c1nc(NC(=O)c2cc(NC(=O)CCNC(=O)c3nc(NC(=O)CCCNC(=O)c4cc(NC(=O)c5nc(NC(=O)CCNC(=O)c6cc(NC(=O)c7nccn7C)cn6C)cn5C)cn4CCCOCCNC(C)=O)cn3C)cn2C)cn1C` [Compound B-304] was tested. Which pEC50 [1] did it give?
Its pEC50 is > 7.00.

What about the pEC50 [2] of the same compound?
Its pEC50 is > 7.00.

With `CC(=O)NCCOCCCn1cc(NC(=O)c2nc(NC(=O)CCNC(=O)c3cc(NC(=O)c4nccn4C)cn3C)cn2C)cc1C(=O)NCCCC(=O)Nc1cn(C)c(C(=O)NCCC(=O)Nc2cc(C(=O)Nc3cn(C)c(C(=O)NCCC(=O)N4CCC(C#CC#CC5CCN(C(C)=O)CC5)CC4)n3)n(C)c2)n1` [Compound B-305] as the compound, how does the pEC50 [1] read?
The pEC50 was > 7.00.

What about the pEC50 [2] of the same compound?
The pEC50 was 6.30 to 7.00.

How did the pEC50 [1] turn out when `CC(=O)NCCOCCCn1cc(NC(=O)c2nc(NC(=O)CCNC(=O)c3cc(NC(=O)c4nccn4C)cn3C)cn2C)cc1C(=O)NCCCC(=O)Nc1cn(C)c(C(=O)NCCC(=O)Nc2cc(C(=O)Nc3cn(C)c(C(=O)NCCC(=O)N4CCC(C#CC#CC5CCNCC5)CC4)n3)n(C)c2)n1` [Compound B-306] was run?
The pEC50 was > 7.00.

And the pEC50 [2]?
Its pEC50 is > 7.00.

What does the source list for `Cn1cc(NC(=O)c2nc(NC(=O)CCNC(=O)c3cc(NC(=O)c4nccn4C)cn3C)cn2C)cc1C(=O)NCCCC(=O)Nc1cn(C)c(C(=O)NCCC(=O)Nc2cc(C(=O)Nc3cn(C)c(C(=O)NCCC(N)=O)n3)n(C)c2)n1` [Compound B-307]?
pEC50 [1]: > 7.00; pEC50 [2]: 6.30 to 7.00

`Cn1cc(NC(=O)c2nc(NC(=O)CCNC(=O)c3cc(NC(=O)c4nccn4C)cn3C)cn2C)cc1C(=O)NCCCC(=O)Nc1cn(C)c(C(=O)NCCC(=O)Nc2cc(C(=O)Nc3cn(C)c(C(N)=O)n3)n(C)c2)n1` [Compound B-308] was tested. Which pEC50 [1] did it give?
Its pEC50 is > 7.00.

And the pEC50 [2]?
Its pEC50 is 6.30 to 7.00.

What does the source list for `CNC(=O)CCNC(=O)c1nc(NC(=O)c2cc(NC(=O)CCNC(=O)c3nc(NC(=O)CCCNC(=O)c4cc(NC(=O)c5nc(NC(=O)CCNC(=O)c6cc(NC(=O)c7nccn7C)cn6C)cn5C)cn4C)cn3C)cn2C)cn1C` [Compound B-309]?
pEC50 [1]: > 7.00; pEC50 [2]: 6.00 to 6.30

With `CNC(=O)c1nc(NC(=O)c2cc(NC(=O)CCNC(=O)c3nc(NC(=O)CCCNC(=O)c4cc(NC(=O)c5nc(NC(=O)CCNC(=O)c6cc(NC(=O)c7nccn7C)cn6C)cn5C)cn4C)cn3C)cn2C)cn1C` [Compound B-310] as the compound, how does the pEC50 [1] read?
Its pEC50 is > 7.00.

And the pEC50 [2]?
Its pEC50 is > 7.00.

Which results are given for `CCNC(=O)CCNC(=O)c1nc(NC(=O)c2cc(NC(=O)CCNC(=O)c3nc(NC(=O)CCCNC(=O)c4cc(NC(=O)c5nc(NC(=O)CCNC(=O)c6cc(NC(=O)c7nccn7C)cn6C)cn5C)cn4C)cn3C)cn2C)cn1C` [Compound B-311]?
pEC50 [1]: > 7.00; pEC50 [2]: 6.30 to 7.00

What does the source list for `CCNC(=O)c1nc(NC(=O)c2cc(NC(=O)CCNC(=O)c3nc(NC(=O)CCCNC(=O)c4cc(NC(=O)c5nc(NC(=O)CCNC(=O)c6cc(NC(=O)c7nccn7C)cn6C)cn5C)cn4C)cn3C)cn2C)cn1C` [Compound B-312]?
pEC50 [1]: > 7.00; pEC50 [2]: > 7.00

What does the source list for `CN(C)C(=O)CCNC(=O)c1nc(NC(=O)c2cc(NC(=O)CCNC(=O)c3nc(NC(=O)CCCNC(=O)c4cc(NC(=O)c5nc(NC(=O)CCNC(=O)c6cc(NC(=O)c7nccn7C)cn6C)cn5C)cn4C)cn3C)cn2C)cn1C` [Compound B-313]?
pEC50 [1]: > 7.00; pEC50 [2]: > 7.00

How did the pEC50 [1] turn out when `CCCNC(=O)CCNC(=O)c1nc(NC(=O)c2cc(NC(=O)CCNC(=O)c3nc(NC(=O)CCNC(=O)c4cc(NC(=O)c5nc(NC(=O)CCNC(=O)c6cc(NC(=O)c7nccn7C)cn6C)cn5C)cn4C)cn3C)cn2C)cn1C` [Compound B-315] was run?
Its pEC50 is < 6.00.

What about the pEC50 [2] of the same compound?
The pEC50 was < 6.00.

How did the pEC50 [1] turn out when `CCCNC(=O)CCNC(=O)c1nc(NC(=O)c2cc(NC(=O)CCNC(=O)c3nc(NC(=O)CCCNC(=O)c4cc(NC(=O)c5nc(NC(=O)CCNC(=O)c6cc(NC(=O)c7nccn7C)cn6C)cn5C)cn4CC)cn3C)cn2C)cn1C` [Compound B-318] was run?
The pEC50 was > 7.00.

And the pEC50 [2]?
Its pEC50 is 6.30 to 7.00.

`CCCNC(=O)CCNC(=O)c1nc(NC(=O)c2cc(NC(=O)CCNC(=O)c3nc(NC(=O)CCCNC(=O)c4cc(NC(=O)c5nc(NC(=O)CCNC(=O)c6cc(NC(=O)c7nccn7C)cn6C)cn5C)cn4C(C)C)cn3C)cn2C)cn1C` [Compound B-319] was tested. Which pEC50 [1] did it give?
The pEC50 was > 7.00.

And the pEC50 [2]?
The pEC50 was 6.30 to 7.00.

`CCCNC(=O)CCNC(=O)c1nc(NC(=O)c2cc(NC(=O)CCNC(=O)c3nc(NC(=O)CCCNC(=O)c4cc(NC(=O)c5nc(NC(=O)CCNC(=O)c6cc(NC(=O)c7nccn7C)cn6C)cn5C)cn4CCC)cn3C)cn2C)cn1C` [Compound B-320] was tested. Which pEC50 [1] did it give?
The pEC50 was > 7.00.

And the pEC50 [2]?
Its pEC50 is > 7.00.

How did the pEC50 [1] turn out when `CCCCn1cc(NC(=O)c2nc(NC(=O)CCNC(=O)c3cc(NC(=O)c4nccn4C)cn3C)cn2C)cc1C(=O)NCCCC(=O)Nc1cn(C)c(C(=O)NCCC(=O)Nc2cc(C(=O)Nc3cn(C)c(C(=O)NCCC(=O)NCCC)n3)n(C)c2)n1` [Compound B-321] was run?
The pEC50 was > 7.00.

And the pEC50 [2]?
Its pEC50 is > 7.00.

How did the pEC50 [1] turn out when `CCCCCn1cc(NC(=O)c2nc(NC(=O)CCNC(=O)c3cc(NC(=O)c4nccn4C)cn3C)cn2C)cc1C(=O)NCCCC(=O)Nc1cn(C)c(C(=O)NCCC(=O)Nc2cc(C(=O)Nc3cn(C)c(C(=O)NCCC(=O)NCCC)n3)n(C)c2)n1` [Compound B-322] was run?
The pEC50 was 6.30 to 7.00.

And the pEC50 [2]?
Its pEC50 is > 7.00.

How did the pEC50 [1] turn out when `CCCCCCn1cc(NC(=O)c2nc(NC(=O)CCNC(=O)c3cc(NC(=O)c4nccn4C)cn3C)cn2C)cc1C(=O)NCCCC(=O)Nc1cn(C)c(C(=O)NCCC(=O)Nc2cc(C(=O)Nc3cn(C)c(C(=O)NCCC(=O)NCCC)n3)n(C)c2)n1` [Compound B-323] was run?
The pEC50 was > 7.00.

And the pEC50 [2]?
The pEC50 was > 7.00.

How did the pEC50 [1] turn out when `CCCNC(=O)CCNC(=O)c1nc(NC(=O)c2cc(NC(=O)CCNC(=O)c3nc(NC(=O)CCCNC(=O)c4cc(NC(=O)c5nc(NC(=O)CCNC(=O)c6cc(NC(=O)c7nc(NC=O)cn7C)cn6C)cn5C)cn4C)cn3C)cn2C)cn1C` [Compound B-324] was run?
The pEC50 was > 7.00.

What about the pEC50 [2] of the same compound?
Its pEC50 is 6.30 to 7.00.

How did the pEC50 [1] turn out when `CCCNC(=O)CCNC(=O)c1nc(NC(=O)c2cc(NC(=O)CCNC(=O)c3nc(NC(=O)CCCNC(=O)c4cc(NC(=O)c5nc(NC(=O)CCNC(=O)c6cc(NC(=O)c7nc(N=C(N)N)cn7C)cn6C)cn5C)cn4C)cn3C)cn2C)cn1C` [Compound B-325] was run?
The pEC50 was < 6.00.

What about the pEC50 [2] of the same compound?
Its pEC50 is 6.00 to 6.30.
